Assay: Inhibitory activity against recombinant Mycobacterium tuberculosis beta-ketoacyl-Acyl Carrier Protein synthase mtFabH condensing enzyme

Row | Compound | IC50 [µM]
1 | C#CCC1(C)SC(=O)C(C)=C1O (centres undefined) | 100
2 | COC(=O)c1ccc(C#CCC2(C)SC(O)=C(C)C2=O)cc1 (centres undefined) | 74
3 | CC(=O)c1ccc(C#CCC2(C)SC(O)=C(C)C2=O)cc1O (centres undefined) | 7
4 | CC1=C(O)C(C)(CC#Cc2ccccc2C#N)SC1=O (centres undefined) | 48
5 | CC1=C(O)C(C)(Cc2ccc(-c3ccc(COCc4ccccc4)cc3)cc2)SC1=O (centres undefined) | 17
6 | CC1=C(O)C(C)(CC#Cc2ccc([N+](=O)[O-])cc2)SC1=O (centres undefined) | 34
7 | CC1=C(O)C(C)(CC#Cc2ccc(C#N)cc2)SC1=O (centres undefined) | 7
8 | CC(=O)c1ccc(C#CCC2(C)SC(O)=C(C)C2=O)cc1 (centres undefined) | 4
9 | C=C/C(C)=C/[C@@]1(C)SC(=O)C(C)=C1O [THIOLACTOMYCIN] | 74.9

From ChEMBL document CHEMBL1146829, “Acetylene-based analogues of thiolactomycin, active against Mycobacterium tuberculosis mtFabH fatty acid condensing enzyme” (Bioorg Med Chem Lett, 2004)
